Tests used:
[1] = target: LDHA (Homo sapiens (Human), UniProt P00338); assay: Coupled diaphorase assay, LDHA; format: biochemical; conditions: lactate to pyruvate direction, 4-7 nM LDHA
Description: (§1) The inhibitory properties of the compounds were investigated using a coupled enzyme assay that links the lactate dehydrogenase (LDH) reaction to the production of fluorescent resorutin by diaphorase.
(§2) Human lactate dehydrogenases (LDH) catalyze the reversible interconversion between pyruvate and lactate. LDH is capable of catalyzing both the forward (pyruvate to lactate) and the reverse (lactate to pyruvate) reaction, using either NADH or NAD^+ as a cofactor. The reaction proceeds in either direction dependent on various factors, such as substrate availability, the presence of necessary cofactors, temperature and pH. Different isoforms (LDH A, B, and C) of the enzyme favor different reaction directions—LDHA prefers the conversion from pyruvate to lactate, whereas LDHB preferentially oxidizes lactate to pyruvate.
The coupled assay relies on the oxidation of NAD^+ to NADH throughout the conversion of lactate to pyruvate by LDH (isoforms A, B and C). The produced NADH serves as cofactor in the diaphorase reaction, which reduces non-fluorescent resazurin to fluorescent resorufin. Therefore, the assay indirectly monitors the rate of pyruvate production. Although the consumption of NADH can be directly monitored due to the intrinsic fluorescence of the molecule (excitation: 340 nm, emission: 460 nm) there are problems linked to the direct readout method. […] Shifting the assay to longer wavelengths by coupling the LDH reaction to the conversion of resazurin to fluorescent resorufin by diaphorase reduces this compound interference. The assay direction was thus chosen to provide a robust and reliable assay. […]
Compounds were tested in duplicates using 2-fold, 3-fold or 4-fold serial dilutions including 11 individual concentrations, starting from 5000 μM to 30 μM. […] The controls allowed for the calculation of the percentage inhibition for each data point. […] Enzyme solution leading to final concentrations of 4-7 nM LDHA or 6 nM LDHB, as well as 0.2 U/ml diaphorase in the reaction well was dispensed into 384-well plates (Greiner bio-one) using a CyBi®-SELMA robotic pipettor. Compound dilutions and the enzyme were incubated for at least 20 min at room temperature. […] The reaction was quenched by the addition of a stop solution (final concentrations: 20 mM EDTA, 400 mM NaCl, 40 mM pyruvate). Fluorescence was read out after 5 min of incubation at an excitation wavelength of 560 nm and an emission wavelength of 590 nm on a Perkin Elmer Victor X plate reader. […]
(§3) Fluorescence data was normalized to DMSO and inhibition controls resulting in percentage inhibition for every compound concentration. Dose response curves were fitted in KaleidaGraph (www.synergy.com) or Dotmatics software package (www.dotmatics.com) using a standard 4-parameter fit (Levenberg-Marquardt fitting procedure), resulting in IC50 values for the test compounds.

[2] = target: LDHB (Homo sapiens (Human), UniProt P07195); assay: Coupled diaphorase assay, LDHB; format: biochemical; conditions: lactate to pyruvate direction, 6 nM LDHB
Description: as §1, §2
The coupled assay relies on the oxidation of NAD^+ to NADH throughout the conversion of lactate to pyruvate by LDH (isoforms A, B and C). The produced NADH serves as cofactor in the diaphorase reaction, which reduces non-fluorescent resazurin to fluorescent resorufin. Therefore, the assay indirectly monitors the rate of pyruvate production. Although the consumption of NADH can be directly monitored due to the intrinsic fluorescence of the molecule (excitation: 340 nm, emission: 460 nm) there are problems linked to the direct readout method. […] Shifting the assay to longer wavelengths by coupling the LDH reaction to the conversion of resazurin to fluorescent resorufin by diaphorase reduces this compound interference. The assay direction was thus chosen to provide a robust and reliable assay.
Applying the LDHA reaction in the preferred direction for the conversion of pyruvate to lactate under oxidation of NADH to NAD^+ would necessitate running the LDHA reaction to about 80% completion and adding the diaphorase assay reagents afterwards in order to avoid enzyme competition for NADH.
The controls allowed for the calculation of the percentage inhibition for each data point. […] Enzyme solution leading to final concentrations of 4-7 nM LDHA or 6 nM LDHB, as well as 0.2 U/ml diaphorase in the reaction well was dispensed into 384-well plates (Greiner bio-one) using a CyBi®-SELMA robotic pipettor. Compound dilutions and the enzyme were incubated for at least 20 min at room temperature. […] The reaction was quenched by the addition of a stop solution (final concentrations: 20 mM EDTA, 400 mM NaCl, 40 mM pyruvate). Fluorescence was read out after 5 min of incubation at an excitation wavelength of 560 nm and an emission wavelength of 590 nm on a Perkin Elmer Victor X plate reader. […]
as §3

LDHB, sequence (P07195 whole entry): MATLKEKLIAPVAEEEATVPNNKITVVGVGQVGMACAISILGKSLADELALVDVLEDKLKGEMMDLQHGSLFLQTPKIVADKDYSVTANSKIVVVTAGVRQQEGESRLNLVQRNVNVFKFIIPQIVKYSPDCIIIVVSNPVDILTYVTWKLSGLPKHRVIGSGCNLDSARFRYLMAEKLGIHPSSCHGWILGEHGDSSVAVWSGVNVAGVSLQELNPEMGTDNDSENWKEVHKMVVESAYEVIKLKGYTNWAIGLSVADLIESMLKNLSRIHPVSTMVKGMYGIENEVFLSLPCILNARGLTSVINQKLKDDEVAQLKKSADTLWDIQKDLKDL

COCCOC(=O)OC1=C(Sc2cc(Cl)ccc2Cl)C(=O)NC(c2ccc(N3CCOCC3)cc2)(c2ccsc2)C1 (racemic) [Example 17, 5-((2,5-dichlorophenyl)thio)-2-(4-morpholinophenyl)-6-oxo-2-(thiophen-3-yl)-1,2,3,6-tetrahydropyridin-4-yl (2-methoxyethyl) carbonate]
IC50 [1]: 10 to 50 µM

O=C1CC(c2ccc(N3CCOCC3)cc2)(c2ccsc2)NC(=O)C1Sc1cc(Cl)ccc1Cl (single isomer, unassigned) [Example 10 Enantiomer 1]
IC50 [1]: 0.5 to 10 µM

O=C1CC(c2ccc(N3CCOCC3)cc2)(c2ccsc2)NC(=O)C1Sc1cc(Cl)ccc1Cl (single isomer, unassigned) [Example 10 Enantiomer 2]
IC50 [1]: 10 to 50 µM

COCCOC(=O)OC1=C(Sc2cc(Cl)ccc2Cl)C(=O)NC(c2ccc(N3CCOCC3)cc2)(c2ccsc2)C1 (single isomer, unassigned) [Example 17 Enantiomer 1]
IC50 [1]: 10 to 50 µM

COCCOC(=O)OC1=C(Sc2cc(Cl)ccc2Cl)C(=O)NC(c2ccc(N3CCOCC3)cc2)(c2ccsc2)C1 (single isomer, unassigned) [Example 17 Enantiomer 2]
IC50 [1]: 0.5 to 10 µM

O=C1CC(c2ccsc2)(c2cccc(OCC3CCCC3)n2)NC(=O)C1Sc1ccc(Cl)cc1Cl (centres unmarked) [Example 1, 6-[6-(cyclopentylmethoxy)pyridin-2-yl]-3-[(2,4-dichlorophenyl)sulfanyl]-6-(thiophen-3-yl)piperidine-2,4-dione]
IC50 [1]: 10 to 50 µM | IC50 [2]: > 100 µM

O=C1CC(c2ccsc2)(c2cccc(Br)n2)NC(=O)C1Sc1ccc(F)cc1Cl (centres unmarked) [Example 2, 6-(6-bromopyridin-2-yl)-3-[(2-chloro-4-fluorophenyl)sulfanyl]-6-(thiophen-3-yl)piperidine-2,4-dione]
IC50 [1]: 10 to 50 µM | IC50 [2]: > 100 µM

CCOc1cccc(C2(c3ccsc3)CC(=O)C(Sc3ccc(F)cc3Cl)C(=O)N2)n1 (centres unmarked) [Example 4, 3-((2-chloro-4-fluorophenyl)thio)-6-(6-ethoxypyridin-2-yl)-6-(thiophen-3-yl)piperidine-2,4-dione]
IC50 [1]: 10 to 50 µM | IC50 [2]: > 100 µM

O=C1CC(c2ccsc2)(c2cccc(Br)n2)NC(=O)C1Sc1cccc(Cl)c1Cl (centres unmarked) [Example 6, 6-(6-bromopyridin-2-yl)-3-[(2,3-dichlorophenyl)sulfanyl]-6-(thiophen-3-yl)piperidine-2,4-dione]
IC50 [1]: > 100 µM | IC50 [2]: > 100 µM

O=C1CC(c2ccsc2)(c2cccc(OCC3CCCC3)n2)NC(=O)C1Sc1cccc(Cl)c1Cl (centres unmarked) [Example 7, 6-[6-(cyclopentylmethoxy)pyridin-2-yl]-3-[(2,3-dichlorophenyl)sulfanyl]-6-(thiophen-3-yl)piperidine-2,4-dione]
IC50 [1]: 10 to 50 µM | IC50 [2]: > 100 µM

O=C1CC(c2ccc(N3CCOCC3)cc2)(c2ccsc2)NC(=O)C1Sc1ccc(F)cc1Cl (centres unmarked) [Example 8, 3-((2-chloro-4-fluorophenyl)thio)-6-(4-morpholinophenyl)-6-(thiophen-3-yl)piperidine-2,4-dione]
IC50 [1]: 0.1 to 0.5 µM | IC50 [2]: 0.1 to 0.5 µM

O=C1CC(c2ccc(N3CCOCC3)cc2)(c2ccsc2)NC(=O)C1Sc1cccc(Cl)c1Cl (centres unmarked) [Example 9, 3-((2,3-dichlorophenyl)thio)-6-(4-morpholinophenyl)-6-(thiophen-3-yl)piperidine-2,4-dione]
IC50 [1]: 0.5 to 10 µM | IC50 [2]: > 100 µM

CCOC(=O)OC1=C(Sc2ccc(F)cc2Cl)C(=O)NC(c2ccsc2)(c2cccc(OCC3CCCC3)n2)C1 (centres unmarked) [Example 11, 5-[(2-chloro-4-fluorophenyl)sulfanyl]-2-[6-(cyclopentylmethoxy)pyridin-2-yl]-6-oxo-2-(thiophen-3-yl)-1,2,3,6-tetrahydropyridin-4-yl ethyl carbonate]
IC50 [1]: > 100 µM | IC50 [2]: > 100 µM

COC(=O)OC1=C(Sc2cccc(Cl)c2Cl)C(=O)NC(c2ccsc2)(c2cccc(OCC3CCCC3)n2)C1 (centres unmarked) [Example 12, 6′-(cyclopentylmethoxy)-5-((2,3-dichlorophenyl)thio)-6-oxo-2-(thiophen-3-yl)-1,2,3,6-tetrahydro-[2,2′-bipyridin]-4-yl methyl carbonate]
IC50 [1]: > 100 µM | IC50 [2]: > 100 µM

CCCCCCCCCCOC(=O)OC1=C(Sc2cc(Cl)ccc2Cl)C(=O)NC(c2ccsc2)(c2cccc(OCC3CCCC3)n2)C1 (centres unmarked) [Example 16, 6′-(cyclopentylmethoxy)-5-((2,5-dichlorophenyl)thio)-6-oxo-2-(thiophen-3-yl)-1,2,3,6-tetrahydro-[2,2′-bipyridin]-4-yl decyl carbonate]
IC50 [1]: > 100 µM

O=C1CC(c2cncnc2)(c2ccsc2)OC(=O)C1Sc1ccccc1Cl (centres unmarked) [Example 19, 3-((2-chlorophenyl)thio)-6-(pyrimidin-5-yl)-6-(thiophen-3-yl)dihydro-2H-pyran-2,4(3H)-dione]
IC50 [1]: 0.5 to 10 µM

COC(=O)OC1=C(Sc2ccccc2Cl)C(=O)OC(c2ccsc2)(c2ccc(Br)cn2)C1 (centres unmarked) [Example 21, 2-(5-bromopyridin-2-yl)-5-((2-chlorophenyl)thio)-6-oxo-2-(thiophen-3-yl)-3,6-dihydro-2H-pyran-4-yl methyl carbonate]
IC50 [1]: 10 to 50 µM

CC(C)COC(=O)OC1=C(Sc2cc(Cl)ccc2Cl)C(=O)NC(c2ccc(N3CCOCC3)cc2)(c2ccsc2)C1 (centres unmarked) [Example 26, 5-((2,5-dichlorophenyl)thio)-2-(4-morpholinophenyl)-6-oxo-2-(thiophen-3-yl)-1,2,3,6-tetrahydropyridin-4-yl isobutyl carbonate]
IC50 [1]: 50 to 100 µM

CC(=O)OC1=C(Sc2cc(Cl)ccc2Cl)C(=O)NC(c2ccc(N3CCOCC3)cc2)(c2ccsc2)C1 (centres unmarked) [Example 27, 5-((2,5-dichlorophenyl)thio)-2-(4-morpholinophenyl)-6-oxo-2-(thiophen-3-yl)-1,2,3,6-tetrahydropyridin-4-yl acetate]
IC50 [1]: 10 to 50 µM

CC(C)(C)C(=O)OC1=C(Sc2cc(Cl)ccc2Cl)C(=O)NC(c2ccc(N3CCOCC3)cc2)(c2ccsc2)C1 (centres unmarked) [Example 28, 5-((2,5-dichlorophenyl)thio)-2-(4-morpholinophenyl)-6-oxo-2-(thiophen-3-yl)-1,2,3,6-tetrahydropyridin-4-yl pivalate]
IC50 [1]: 10 to 50 µM

O=C1NC(c2ccc(N3CCOCC3)cc2)(c2ccsc2)CC(OC(=O)c2ccncc2)=C1Sc1cc(Cl)ccc1Cl (centres unmarked) [Example 31, 5-((2,5-dichlorophenyl)thio)-2-(4-morpholinophenyl)-6-oxo-2-(thiophen-3-yl)-1,2,3,6-tetrahydropyridin-4-yl isonicotinate]
IC50 [1]: 0.5 to 10 µM

COCCOC(=O)OC1=C(Sc2cc(Cl)ccc2Cl)C(=O)NC(c2ccsc2)(c2cccc(OCC3CCCC3)n2)C1 (centres unmarked) [Example 34, 6′-(cyclopentylmethoxy)-5-((2,5-dichlorophenyl)thio)-6-oxo-2-(thiophen-3-yl)-1,2,3,6-tetrahydro-[2,2′-bipyridin]-4-yl (2-methoxyethyl) carbonate]
IC50 [1]: > 100 µM

COCCOC(=O)OC1=C(Sc2ccccc2Cl)C(=O)OC(c2cnc(N3CCOCC3)nc2)(c2ccsc2)C1 (centres unmarked) [Example 35, 5-((2-chlorophenyl)thio)-2-(2-morpholinopyrimidin-5-yl)-6-oxo-2-(thiophen-3-yl)-3,6-dihydro-2H-pyran-4-yl (2-methoxyethyl) carbonate]
IC50 [1]: 10 to 50 µM
